The values below come from patent publication US20060094676A1, “Compositions and methods for treating cancer using compositions comprising an inhibitor of endothelin receptor activity” (priority 2004, published 2006).

Common to all, as to assay type: cell-based, human
For series [1], the system named is Me 190/DA (Cut-met) melanoma cells. The series can be described thus: MTS assay of cell viability after BQ788. The conditions noted are these: incubation with BQ788 for seven days. Here is the method:
(§1) Cells were cultured on a matrigel matrix that was histologically examined after two weeks (A-F). While the primary melanoma cells remained on top of the gel only (A and B), a fraction of the Cut-met cells invaded the gel (C and D) and the LN-met cells invaded the matrix extensively (E and F). Cell lysates of the three lines were subjected to western blot analysis using an anti-ETRB Ab (G) and an anti-tubulin Ab (H). Untreated, control (vehicle treated), and BQ788 treated cells were subjected to MTS assay to quantify any reduction in cell number. The mean values were calculated and plotted (I) as the percentage of the vehicle treated value+/− SEM.
(§2) Human melanoma cell lines Me191-1/GG (Primary), Me 190/DA (Cut-met), Me 275/EP (LN-met) were obtained from the Ludwig Institute (Epalinges, Switzerland) and SK-MEL-28 was obtained from the American Tissue Culture Collection (ATCC). […] After removal of the inserts, MTS solution was added to the well to quantify the cells that migrated through the insert and were attached to the bottom of the well by measuring the OD at 492 nm (Promega). […]
(§3) To address the relationship between the level of progression of human melanoma and responsiveness to BQ788 treatment, 3 cell lines that had been grown in culture for a restricted number of passages were used. […] This effect was quantified using the MTS assay.
A general note: Tetrazolium dyes change colour on reduction, which living cells bring about.

Series [2] has as its system Me 275/EP (LN-met) melanoma cells. Description: MTS assay of cell viability after BQ788. The conditions noted are these: incubation with BQ788 for seven days; LN-met line. On the procedure: as §1, §2, §3
Another series has as its system BCL-2A1. The series can be described thus: Real-time RT-PCR of BCL-2A1 transcripts. The conditions noted are these: BQ788 3 days. On the procedure:
(§4) Equal amounts of RNA from cells that were treated with BQ788 for 3 days were subjected to real-time RT-PCR analysis for the detection of BCL-2A1 (A) and ADP ribosyltransferase 3 (B) transcripts. Total amounts are represented in A while relative (to control) values are shown in B. Differences in expression levels are shown as x fold decrease and are statistically significant (p<0.05) unless a column in marked as non significant (N.S.). Lysates of BQ788 treated cells and controls were subjected to an apoptosis ELISA detection test (C). SK-MEL-28 cells were cultured with pan caspase inhibitor (D) or with caspase 6 inhibitor (E) with or without BQ788 for 2.5 days. […] SK-MEL-28 cells were cultured for 3 days in the presence of BQ788 and assayed for caspase 6 activity (F). The difference between the columns is statistically significant (p<0.05).
RNA was prepared from the different cell lines in different culture conditions using SV total RNA isolation kit (Promega) according to the manufacturer's protocol. For each sample RNA concentration was determined using the total RNA nano procedure of an Agilent bioanalyzer. A stock of SK-MEL-28 RNA aliquots was prepared containing 10, 20, 50, 100, 200, 500 and 1000 ng/12 μl for use as a standard curve and kept in −80° C. For the experimental unknown samples, a stock of 100 ng/12 μl RNA aliquots from each cell line and condition was prepared and stored at −80° C. For each real-time experiment one series of standard curve and unknown experimental series of aliquots was put on ice for use. Complementary DNA was prepared by adding to each tube 0.5 μl of random hexamers (Promega) and 1 μl of 10 mM dNTP mix (Promega) and incubating at 65° C. for 5 min. 4 μl of 5× M-MLV buffer (Promega), 1 μl of the RNase inhibitor RNasin (Promega) and 1 μl of M-MLV RT RNase H (Promega) were then added and the solution was incubated at 42° C. for 50 min followed by 15 min at 70° C. For real time reactions 15 μl of each cDNA sample were transferred to 3 wells in a 386 well plate. To each well we added 10 μl of TaqMan universal PCR master mix (Applied Biosystems), 1 μl of primers+probe mix (Assays-on-Demand from Applied Biosystems: EDNRB Hs00240747, BCL-2A1 Hs00187845, PARP-3 Hs00154151, VEGF Hs00173626, HIF-1α Hs00153153 and Gravin Hs00374507) and 4 μl of nuclease free water (Promega). […] A standard curve of Ct versus RNA quantity was established and accordingly the Ct in the unknown samples was correlated to quantity of transcript.
If the observed reduction in BCL-2A1 and PARP-3 expression is implicated in ETRB blockade-dependent cell death, one would expect the more resistant cell lines to display less reduction in BCL-2A1 and PARP-3 levels. To test this possibility and to validate our microarray results, we used quantitative real-time PCR.
On the technique in general: Quantitative PCR measures a nucleic acid by following its amplification.

In another series the test system is PARP-3. The series can be described thus: Real-time RT-PCR of PARP-3 transcripts. The conditions noted are these: primary melanoma cells; BQ788 treatment. On the procedure: as §4
RNA was prepared from the different cell lines in different culture conditions using SV total RNA isolation kit (Promega) according to the manufacturer's protocol. For each sample RNA concentration was determined using the total RNA nano procedure of an Agilent bioanalyzer. […] A standard curve of Ct versus RNA quantity was established and accordingly the Ct in the unknown samples was correlated to quantity of transcript. […]

With `CCCC[C@@H](NC(=O)[C@@H](Cc1cn(C(=O)OC)c2ccccc12)NC(=O)[C@H](CC(C)(C)C)NC(=O)N1[C@H](C)CCC[C@@H]1C)C(=O)O` [BQ788, N-cis-2,6-dimethylpiperidinocarbonyl-L-γ-methylleucyl-D-1-methoxycarbonyltrptophanyl-D-norleucine], the values for the reduction of viability in series [1] and in series [2] were 45% and 96%, respectively. Also, the “decrease in BCL-2A1 levels” value in the series on BCL-2A1 (Cut-met line) is listed as 1.8 fold; with BCL-2A1 (LN-met), 2.9 fold; in the series on BCL-2A1 (SK-MEL-28), 5.7 fold. For the same molecule, the BCL-2A1 expression change entry in the series with BCL-2A1 (primary melanoma cells) was “did not change”. The PARP-3 levels entry with PARP-3 is listed as “did not show a decrease”.
